Measured values published in patent US6255285A, “Phenethylamine derivatives” (Chugai Seiyaku Kabushiki Kaisha, priority 1997, dated 2001).
Square brackets hold non-standard residues; d marks the D form. Peptide text beside a SMILES is read from it. Tyr(3-tBu) = CC(C)(C)c1cc(C[CH](N)C(=O)O)ccc1O; Phg = N[CH](C(=O)O)c1ccccc1

Key:
motilin receptor = biological target: T1, motilin receptor (Oryctolagus cuniculus, UniProt G1T803); test: Motilin receptor binding test; conditions: rabbit duodenum homogenate, 125I motilin 25 pM; concentration reducing specific binding by 50%
T1 construct: had the mucous membrane separated and homogenized in 50 mM Tris-HCl buffer to prepare a receptor sample; from tissue; host or cells: rabbit duodenum with the mucosa removed, homogenate
T1 sequence (G1T803 1-400): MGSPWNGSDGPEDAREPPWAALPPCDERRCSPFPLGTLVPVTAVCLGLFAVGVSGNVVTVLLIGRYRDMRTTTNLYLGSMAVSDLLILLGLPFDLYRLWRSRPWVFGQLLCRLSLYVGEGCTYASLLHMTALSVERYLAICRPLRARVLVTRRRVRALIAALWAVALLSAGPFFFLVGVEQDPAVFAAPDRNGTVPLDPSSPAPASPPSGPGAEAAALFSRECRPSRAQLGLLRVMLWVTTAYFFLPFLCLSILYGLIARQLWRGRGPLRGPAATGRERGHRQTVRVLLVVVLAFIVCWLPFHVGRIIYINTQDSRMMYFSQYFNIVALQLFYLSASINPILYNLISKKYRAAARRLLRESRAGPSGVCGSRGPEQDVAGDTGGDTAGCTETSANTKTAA
Method: Motilin Receptor Binding Test
A motilin receptor binding test was conducted in the following manner [Bormans et al., Regul. Peptides, 15, 143 (1986)]. The duodenum was extracted from a slaughtered rabbit, had the mucous membrane separated and homogenized in 50 mM Tris-HCl buffer to prepare a receptor sample. The sample was incubated together with ^125 I motilin 25 pM and thereafter the radioactivity bound to the receptor was measured. Specific binding was defined as the difference between the radioactivity in the case of adding 1% DMSO in place of the compounds of the examples and that in the case of adding a great excess amount of motilin (10^-7 M). The activity of each compound was expressed by IC50 (in nM), as the concentration sufficient to reduce the specific binding by 50%.

[1] = tested on: motilin-induced contraction of a specimen of longitudinal muscle in the duodenum extracted from a rabbit; test: Contraction suppressing test: action on motilin-induced contraction of duodenum longitudinal muscle specimen; format: cell-based; conditions: rabbit duodenum specimen in organ bath, Krebs solution 28° C.; effect on dose-dependent contraction by motilin
Method: Action on the Contraction of a Specimen of Longitudinal Muscle in the Duodenum Extracted from a Rabbit
The action on the motilin-induced contraction of a specimen of longitudinal muscle in the duodenum extracted from a rabbit was investigated by the following method. A duodenum specimen extracted from a slaughtered rabbit (3×10 mm) was suspended in an organ bath (10 ml) such that the longitudinal muscle would run vertically; the bath was filled with a Krebs solution kept at 28° C. A mixed gas (95% O2 and 5% CO2) was continuously bubbled into the Krebs solution and the contraction of the duodenum specimen was recorded isotonically (with a 1-g load) via an isotonic transducer (TD-111T of Nihon Koden, K.K.) The degree of contraction was expressed in relative values, with the contraction by acetylcholine at a dose of 10^-4 M being taken as 100%. The activity of each compound was calculated as pA2 value indicating its effect on the dose-dependent muscle contraction by the motilin put into the organ bath.

Row | SMILES | IC50 (motilin receptor) [nM] | Contraction suppressing test, pA2 [1]
1 | CC(C)(C)c1cc(CC(NC(=O)C(NC(=O)C(N)Cc2ccccc2)c2ccccc2)C(N)=O)ccc1O (stereo not drawn) [Example 5, Phe-Phg-Tyr(3-tBu)-NH2] (H-Phe-[Phg]-[Tyr(3-tBu)]-NH2; configuration not given here) | 12 | 7.81
2 | CC(C)[C@@H](C(=O)N(C)[C@@H](Cc1ccc(O)c(C(C)(C)C)c1)C(N)=O)N(C)C(=O)[C@@H](N)Cc1ccccc1 [Example 119, Phe-N-Me-Val-N-Me-Tyr(3-tBu)-NH2] (HELM PEPTIDE1{F.[meV].[CN([C@@H](Cc1ccc(O)c(C(C)(C)C)c1)C(=O)[*:2])[*:1]].[am]}$$$$V2.0) | 4.3 | 8.59
3 | CC(Cc1ccc(O)c(C(C)(C)C)c1)NC(=O)C(C(C)C)N(C)C(=O)[C@@H](N)Cc1ccccc1 (some centres unmarked) [Example 118, N-[2-(3-tert-butyl-4-hydroxyphenyl)-1-methylethyl]-3-methyl-2-(N-methyl-N-phenylalanylamino)butanamide] | 1.9 | 8.43
4 | CN(C(=O)C(N)Cc1ccccc1)C(C(=O)NC(Cc1ccc(O)c(C(C)(C)C)c1)C(N)=O)c1ccccc1 [Example 18B, Phe-N-Me-D-Phg-Tyr(3-tBu)-NH2] | 3.7 | 8.58
